Reference: US8828922B2, “HSP therapy in conjunction with a low antigenicity diet” (Andromeda Biotech Ltd., priority 2004, dated 2014)
No end group written: not given here.

Key:
[1] = system: BB-DP rats; assay: Diabetes incidence and onset after neonatal oral DiaPep277 with conventional or HC diet; type: in vivo, rat
Procedure: Experimental set-up: Group-housed BB-DP rats (breeding colony, Groningen, the Netherlands) were orally inoculated once per day with either placebo (aqua dist.) or Diapep277 at days 4, 5, 6 and 7 of life (black box in FIG. 1). Animals were treated in compliance with the principles of laboratory care (NIH publication no. 85-23, revised 1985) and the Dutch law on experimental animal care. Inoculation was done via a silicon-tube swallowed by the neonate and fluid was inoculated directly into the stomach. DiaPep277 was supplied by Peptor Ltd., Rehovot, Israel. It is an analog of the native 437-460 sequence of human hsp60, in which the existing cystein residues at positions 442 and 447 were replaced by valine, for better chemical stabilization. Per inoculation 300 μg/rat of Diapep277 in a volume of 300 μl was administered. At the age of 21 days (gray box in FIG. 1) rats were weaned either on a conventional, cereal-based diet (Hope Farms, rodent diet no. Rmh-B2181, Woerden, Netherlands) or on HC-diet, a modification of the AIN-93G diet containing 20% hydrolyzed casein (Pancase S; Redstar Bioproducts, Tara, Canada) as the source of aminoacids, 53% corn starch, 12% sucrose, 5% corn oil, 5% cellulose-type fiber (Solka-Floc; Teklad, Madison, Wis.) (Visser J. et al., 2003, Metabolism 52, 333-337, Scott F W et al., 1997, Diabetes 46, 589-598). In this study both sexes were used. In our colony 80% to 90% of the BB-DP rats spontaneously develop diabetes before the age of 130 days, with no gender differences. Body weights were measured three times per week. […] The degree of islet infiltration was measured using a Zeiss microscope and was rated as previously described (Visser J. et al., 2003, Metabolism 52, 333-337) with the addition of score 5 which is developed in our lab, to control for completely destroyed islets in severe insulitis. Per pancreas section, an average histological insulitis score was calculated by adding up the score of each islet and dividing it by the total number of islets counted. […]

[2] = system: spleen-derived lymphocytes; details: splenocytes from DiaPep277-treated rats; stimulation 5 or 25 microgram/ml; planned second study
Procedure: In this study, the preventive dose or control (PBS) is administered on days 4-14 to large groups of rats (30 per treatment arm), and followed up for signs of diabetes, as above. In addition, five rats of each group are sacrificed at 2 weeks, 1, 2, 3, 4 and 5 months of age, and at each time point the spleen is removed to determine the cytokine profile. Determination of the cytokine profile is performed by subjecting the spleen-derived lymphocytes to the following stimuli: None; Concanavalin A (1 microgram/ml); DiaPep277 (5 microgram/ml); DiaPep277 (25 microgram/ml).

[3] = system: NOD mice; details: subcutaneous administration; cited from earlier work

Sequence | diabetes incidence ([1]; BB-DP rats, oral 300 μg/rat/day at days 4-7 of life, diet from weaning (day 21), followed to 140 days) | improved chance of not developing diabetes ([1]; all animals receiving DiaPep277, endpoint analysis, χ^2) | protection against diabetes (in words) ([1]; neonatal oral administration alone, conventional diet) | cytokine response of splenocytes on DiaPep277 stimulation (in words) [2] | development of diabetes (in words) [3]
VLGGGVALLRVIPALDSLTPANED [DiaPep277] | 69% | 2.2 fold | did not lead to significant protection | focused Th2/Treg response | –
VLGGGCALLRCIPALDSLTPANED (cysteine pairing not given here) [p277, residues 437-460 of human Hsp60] | – | – | – | – | prevented the development of diabetes
